PubChem BioAssay (NCI)
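48-hour exposure; five concentrations; linearly interpolated endpoints. The concentration for full growth arrest is given as TGI.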

What was measured:
Assay in all cases: NCI anticancer screen, dose series, 48 h
K-562 leukemia = test system: K-562 leukemia
RPMI-8226 leukemia = test system: RPMI-8226 leukemia
MALME-3M melanoma = test system: MALME-3M melanoma
SNB-75 CNS = test system: SNB-75 CNS
MDA-MB-435 = test system: MDA-MB-435
NCI-H522 lung = test system: NCI-H522 lung
MOLT-4 leukemia = test system: MOLT-4 leukemia
SF-295 CNS = test system: SF-295 CNS
HOP-92 NSCLC = test system: HOP-92 NSCLC
SK-MEL-2 melanoma = test system: SK-MEL-2 melanoma
HL-60(TB) leukemia = test system: HL-60(TB) leukemia
OVCAR-8 ovarian = test system: OVCAR-8 ovarian
SF-268 CNS = test system: SF-268 CNS
HCT-116 colon = test system: HCT-116 colon
NCI-H226 lung = test system: NCI-H226 lung
DU-145 prostate = test system: DU-145 prostate
A498 renal = test system: A498 renal
A549 NSCLC = test system: A549 NSCLC
PC-3 prostate = test system: PC-3 prostate
HCC-2998 colon = test system: HCC-2998 colon

| SMILES | TGI (K-562 leukemia) [µM] | TGI (RPMI-8226 leukemia) [µM] | TGI (MALME-3M melanoma) [µM] | TGI (SNB-75 CNS) [µM] | TGI (MDA-MB-435) [µM] | TGI (NCI-H522 lung) [µM] | TGI (MOLT-4 leukemia) [µM] | TGI (SF-295 CNS) [µM] | TGI (HOP-92 NSCLC) [µM] | TGI (SK-MEL-2 melanoma) [µM] | TGI (HL-60(TB) leukemia) [µM] | TGI (OVCAR-8 ovarian) [µM] | TGI (SF-268 CNS) [µM] | TGI (HCT-116 colon) [µM] | TGI (NCI-H226 lung) [µM] | TGI (DU-145 prostate) [µM] | TGI (A498 renal) [µM] | TGI (A549 NSCLC) [µM] | TGI (PC-3 prostate) [µM] | TGI (HCC-2998 colon) [µM] |
| --- | --- | --- | --- | --- | --- | --- | --- | --- | --- | --- | --- | --- | --- | --- | --- | --- | --- | --- | --- | --- |
| O=c1c2cc([N+](=O)[O-])ccc2nc2n1CCCCC2 | > 100 | > 100 | > 100 | > 100 | > 100 | > 100 | > 100 | > 100 | > 100 | > 100 | > 100 | > 100 | > 100 | > 100 | > 100 | > 100 | > 100 | > 100 | > 100 |  |
| O=C1CCCC2C3CC(CN12)C1CCCCN1C3 (centres undefined) |  | > 100 | > 100 |  | > 100 | > 100 | > 100 | > 100 | > 100 | > 100 | > 100 | > 100 | > 100 | > 100 | > 100 | > 100 | > 100 | > 100 | > 100 | > 100 |
| CC(O)C1(CNc2cc(Cl)nc(N)n2)CC(CCc2ccccc2)C1 (centres undefined) | 86.4 | 43.1 | 26.4 | 40 | 26.6 | 21.8 | 56 | 27.6 | 25 | 31.7 | 41.7 | 32 | 29.4 | 21.1 | 30.8 | 35.9 | 27.3 | 31 | 25.3 |  |
| COc1cc(S(=O)(=O)Nc2nc(-c3ccc(N4C(=O)/C(=C/c5ccccc5[N+](=O)[O-])N=C4c4ccccc4)cc3)cs2)ccc1Cl | > 100 |  | > 100 | > 100 | > 100 | > 100 | > 100 | > 100 | > 100 | > 100 | > 100 | > 100 | > 100 | > 100 | > 100 | > 100 | > 100 | > 100 | > 100 |  |
| Cc1ccc(-c2nc(-c3cnccn3)n(C3OC(CO)C(O)C(O)C3O)n2)cc1 (centres undefined) | > 100 | > 100 |  | > 100 | > 100 | > 100 | > 100 | > 100 | > 100 |  | > 100 | > 100 | > 100 | > 100 |  | > 100 |  | > 100 | > 100 | > 100 |
| Cn1/c(=N\N=C(\CNCCO)[C@@H](O)[C@@H]2OC(c3ccccc3)OC[C@H]2O)sc2ccccc21 (some centres undefined) | 33.3 |  | 32.3 | 32.3 | 35 | 32.7 | 33.6 | 33.9 | 32 | 33.3 |  | 37 | 30.5 | 29.5 |  | 35.1 |  | 31.1 | 35.5 | 32 |
| CN(CC(=O)O)c1ncc2c(n1)-c1ccccc1OC2 | > 100 | > 100 | > 100 | > 100 | > 100 | > 100 | > 100 | > 100 | > 100 | > 100 | > 100 | > 100 | > 100 | > 100 |  | > 100 | > 100 | > 100 | > 100 |  |
| CC(=O)O[C@H]1C(=O)[C@@]2(C)[C@H]([C@H](OC(=O)c3ccccc3)[C@]3(O)C[C@H](OC(=O)[C@H](O)[C@@H](NC(=O)C(C)(C)C)c4ccccc4)C(C)=C1C3(C)C)[C@]1(OC(C)=O)CO[C@@H]1C[C@@H]2O | > 10 | > 10 | > 10 | 2.19 | 0.034 | 0.105 | > 8.96 | 1.61 | > 10 | > 3.28 | 0.0791 | > 3.84 | > 10 | > 3.23 | > 10 | 0.839 |  | > 10 | 1.31 | 0.44 |
| C1=NCCNCCNCCN=Cc2ccccc2OCc2cccc(n2)COc2ccccc21 | > 100 | > 100 | > 100 | > 100 | 30 | > 100 | > 100 | 94 | > 100 | > 100 | 73.7 | 84.4 | > 100 | > 100 | > 100 | > 100 | > 100 | > 100 | > 100 |  |
| CC(=O)OCCOc1cc2c([nH]c3ccccc32)c(C)c2cccc1-2 | > 100 | > 26.4 | 5.64 | 3.51 | 5.6 | 4.29 | > 100 | 15.2 | 5.32 | 4.96 | 12.9 | 7.68 | 7.28 | 13.1 | 25 | 15.8 | 26.5 | > 32.2 | 3.68 |  |
| C=CCNS(=O)(=O)c1ncnc2nc[nH]c12 | > 100 | > 100 | > 100 | > 100 | > 100 | > 100 | 41.2 | > 100 | > 100 | > 100 |  | > 100 |  | > 100 | > 100 | > 100 | > 100 | > 100 | > 100 |  |
| Clc1ccc(-c2ccc(-c3nn4c(CNc5ccccc5)nnc4s3)o2)c(Cl)c1 | > 100 | > 100 | > 100 | > 100 | > 100 | > 100 | > 100 | > 100 | > 100 | > 100 | > 100 | > 100 | > 100 | > 100 | > 100 | > 100 | > 100 | > 100 | > 100 |  |
| O=c1[nH]c(-n2[nH]c3c(c2=O)CCCC3)nc(O)c1-c1ccccc1 | > 100 | > 100 | > 100 |  | > 100 | > 100 | > 100 | > 100 | > 100 | > 100 | > 100 | > 100 | > 100 | > 100 | > 100 | > 100 | > 100 |  | > 100 |  |
| Cc1ccc(C)c2c1CC(Cc1ccccc1C(=O)O)C2=O (centres undefined) | > 100 |  | > 100 | > 100 | > 100 | > 100 | > 100 | > 100 | > 100 | > 100 | > 100 | > 100 | > 100 | > 100 | > 100 | > 100 |  | > 100 | > 100 | > 100 |
| CCC1C(=O)C(O)[C@H]2[C@@H]3C(O)CC4=CC(=O)CC[C@]4(C)[C@H]3CC[C@]12C (some centres undefined) | > 50 | > 50 | > 50 | > 50 | > 50 | > 50 | > 50 | > 50 | > 50 | > 50 | > 50 | > 50 | > 50 | > 50 |  | > 50 | > 50 | > 50 | > 50 | > 50 |
| COC(=O)/C=C(/OC)[C@H](C)[C@H](/C=C/c1csc(-c2csc(C(C)C)n2)n1)OC | > 100 | 65.8 | > 100 | > 100 | > 100 | > 100 | > 100 | > 100 | > 100 | > 100 | 99.5 | > 100 | > 100 | > 100 | > 100 | > 100 | > 100 | > 100 | > 100 |  |
| CN(C)/C=N/NC(=O)/C(C#N)=C/N(C)C | > 100 | > 100 | > 100 | > 100 | > 100 | > 100 | > 100 | > 100 |  | > 100 | > 100 | > 100 | > 100 | > 100 | > 100 | > 100 | > 100 | > 100 | > 100 | > 100 |
| [O-][n+]1onc2c1/C(=N/O)CCC2 | > 100 | > 100 | > 100 | > 100 | > 100 | > 100 | > 100 | > 100 |  | > 100 | > 100 | > 100 | > 100 | > 100 | > 100 | > 100 | > 100 | > 100 | > 100 | > 100 |
| O=C(COc1ccc(Cl)c(Cl)c1)N(Cc1ccccc1)Cc1ccc[n+](Cc2ccc(Cl)cc2S(=O)(=O)F)c1 | > 100 | 28.4 | 54.2 | > 100 | > 100 | > 100 | 54.8 | > 100 | > 100 | 70.1 | 94.5 | > 100 | > 100 | > 100 | > 100 | > 100 | > 100 | > 100 | > 100 |  |
| CCOP(=O)(OCC)[C@H]1OC(C)(C)O[C@@H]1CO |  | > 100 | > 100 |  | > 100 | > 100 | > 100 | > 100 | > 100 | > 100 | > 100 | > 100 | > 100 | > 100 |  | > 100 | > 100 | > 100 | > 100 | > 100 |
| Cc1ccc(C(=O)OCC(C)C)cc1N=NN(C)C | > 100 | > 100 | > 100 |  | > 100 | > 100 | > 100 | > 87.5 | > 100 | > 100 | > 100 | > 100 | > 100 | > 100 | > 100 | > 100 |  | > 100 | > 100 | > 100 |
| CC(=O)O[C@H]1CCC2[C@@H]3CCC4Cc5nc6c(nc5C[C@]4(C)C3CC[C@@]21C)CC1CC[C@@H]2C(CC[C@@]3(C)C2CC[C@@H]3C(C)CCCC(C)C)[C@@]1(C)C6 (some centres undefined) | > 100 | > 100 | > 100 | > 100 | > 100 |  | > 100 | > 100 | > 100 | > 100 | > 100 | > 100 | > 100 | > 100 | > 100 | > 100 |  | > 100 | > 100 |  |
| Br/C(=N\Nc1nn[nH]n1)c1ccncc1 | > 100 | > 100 | > 100 | > 100 | > 100 | > 100 | > 100 | > 100 | > 100 | > 100 | > 100 | > 100 | > 100 | > 100 | > 100 | > 100 | > 100 | > 100 | > 100 |  |
| O=C1C(=Cc2cccc(O)c2)N=C(c2ccccc2)N1n1c(-c2ccccc2)nc2ccccc2c1=O | > 100 | 50.2 | 92.3 |  | > 100 | 56 | 44.2 | 65.6 | 66 |  | 54 | 98.5 | 87.5 | 43.2 | 18.9 | 74.5 | 72.4 | > 100 | 58.7 |  |
| CCOC(=O)C(NCc1cccc(C(F)(F)F)c1)(NC(=O)CC)C(F)(F)F (centres undefined) | > 100 | > 100 | > 100 | > 100 | > 100 | > 100 | > 100 | > 100 | > 100 | > 100 | > 100 | > 100 | > 100 | > 100 | > 100 | > 100 |  | > 100 | > 100 | > 100 |
